Measurements from publication PMC10817531, “Chlorinated Enyne Fatty Acid Amides from a Marine Cyanobacterium: Discovery of Taveuniamides L-M and Pharmacological Characterization of Taveuniamide F as a GPCR Antagonist with CNR1 Selectivity” (Marine Drugs, 2023).

Key:
Experiment in all cases: PathHunter β-arrestin GpcrMAX assay
Assay type in all cases: cell-based
[1] = target: T1, GPR92 (Homo sapiens, UniProt Q9H1C0)
T1 construct: purchased DiscoveRx (Eurofins) gpcrMAX PathHunter β-arrestin panel
Method in brief: (§1)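 β-arrestin enzyme fragment complementation (PathHunter) readout; compound at 20 µM, run in both agonist and antagonist mode.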

[2] = target: T2, NMBR (Homo sapiens, UniProt P28336)
T2 construct: purchased DiscoveRx (Eurofins) gpcrMAX PathHunter β-arrestin panel
Method in brief: as §1

[3] = target: CALCR (Homo sapiens, UniProt P30988)
Method in brief: as §1

[4] = target: C3AR1 (Homo sapiens, UniProt Q16581)
Method in brief: as §1

[5] = target: T3, HCRTR2 (Homo sapiens, UniProt O43614)
T3 construct: purchased DiscoveRx (Eurofins) gpcrMAX PathHunter β-arrestin panel
Method in brief: as §1

[6] = target: T4, GPR1 (Homo sapiens, UniProt P46091)
T4 construct: purchased DiscoveRx (Eurofins) gpcrMAX PathHunter β-arrestin panel
Method in brief: as §1

[7] = target: T5, FSHR (Homo sapiens, UniProt P23945)
T5 construct: purchased DiscoveRx (Eurofins) gpcrMAX PathHunter β-arrestin panel
Method in brief: as §1

[8] = target: T6, EDG1 (Homo sapiens, UniProt P21453)
T6 construct: purchased DiscoveRx (Eurofins) gpcrMAX PathHunter β-arrestin panel
Method in brief: as §1

[9] = target: T7, ADCYAP1R1 (Homo sapiens, UniProt P41586)
T7 construct: purchased DiscoveRx (Eurofins) gpcrMAX PathHunter β-arrestin panel
Method in brief: as §1

[10] = target: T8, F2RL1 (Homo sapiens, UniProt P55085)
T8 construct: purchased DiscoveRx (Eurofins) gpcrMAX PathHunter β-arrestin panel
Method in brief: as §1

[11] = target: T9, OPRL1 (Homo sapiens, UniProt P41146)
T9 construct: purchased DiscoveRx (Eurofins) gpcrMAX PathHunter β-arrestin panel
Method in brief: as §1

[12] = target: BDKRB1 (Homo sapiens, UniProt P46663)
Method in brief: as §1

[13] = target: T10, DRD3 (Homo sapiens, UniProt P35462)
T10 construct: purchased DiscoveRx (Eurofins) gpcrMAX PathHunter β-arrestin panel
Method in brief: as §1

[14] = target: AVPR1B (Homo sapiens, UniProt P47901)
Method in brief: as §1

[15] = target: T11, EBI2 (Homo sapiens, UniProt P32249)
T11 construct: purchased DiscoveRx (Eurofins) gpcrMAX PathHunter β-arrestin panel
Method in brief: as §1

[16] = target: T12, NPY2R (Homo sapiens, UniProt P49146)
T12 construct: purchased DiscoveRx (Eurofins) gpcrMAX PathHunter β-arrestin panel
Method in brief: as §1

[17] = target: T13, MRGPRX1 (Homo sapiens, UniProt Q96LB2)
T13 construct: purchased DiscoveRx (Eurofins) gpcrMAX PathHunter β-arrestin panel
Method in brief: as §1

[18] = target: T14, NPBWR2 (Homo sapiens, UniProt P48146)
T14 construct: purchased DiscoveRx (Eurofins) gpcrMAX PathHunter β-arrestin panel
Method in brief: as §1

[19] = target: T15, ADRA1B (Homo sapiens, UniProt P35368)
T15 construct: purchased DiscoveRx (Eurofins) gpcrMAX PathHunter β-arrestin panel
Method in brief: as §1

[20] = target: T16, CCKAR (Homo sapiens, UniProt P32238)
T16 construct: purchased DiscoveRx (Eurofins) gpcrMAX PathHunter β-arrestin panel
Method in brief: as §1

[21] = target: T17, SSTR1 (Homo sapiens, UniProt P30872)
T17 construct: purchased DiscoveRx (Eurofins) gpcrMAX PathHunter β-arrestin panel
Method in brief: as §1

[22] = target: T18, SSTR3 (Homo sapiens, UniProt P32745)
T18 construct: purchased DiscoveRx (Eurofins) gpcrMAX PathHunter β-arrestin panel
Method in brief: as §1

[23] = target: T19, DRD2L (Homo sapiens, UniProt P14416)
T19 construct: purchased DiscoveRx (Eurofins) gpcrMAX PathHunter β-arrestin panel
Method in brief: as §1

[24] = target: T20, NPBWR1 (Homo sapiens, UniProt P48145)
T20 construct: purchased DiscoveRx (Eurofins) gpcrMAX PathHunter β-arrestin panel
Method in brief: as §1

[25] = target: T21, EDG6 (Homo sapiens, UniProt O95977)
T21 construct: purchased DiscoveRx (Eurofins) gpcrMAX PathHunter β-arrestin panel
Method in brief: as §1

[26] = target: C5aR1 (Homo sapiens, UniProt P21730)
Method in brief: as §1

[27] = target: T22, PROKR2 (Homo sapiens, UniProt Q8NFJ6)
T22 construct: purchased DiscoveRx (Eurofins) gpcrMAX PathHunter β-arrestin panel
Method in brief: as §1

[28] = target: T23, MTNR1A (Homo sapiens, UniProt P48039)
T23 construct: purchased DiscoveRx (Eurofins) gpcrMAX PathHunter β-arrestin panel
Method in brief: as §1

[29] = target: T24, GHSR (Homo sapiens, UniProt Q92847)
T24 construct: purchased DiscoveRx (Eurofins) gpcrMAX PathHunter β-arrestin panel
Method in brief: as §1

[30] = target: T25, HRH1 (Homo sapiens, UniProt P35367)
T25 construct: purchased DiscoveRx (Eurofins) gpcrMAX PathHunter β-arrestin panel
Method in brief: as §1

[31] = target: T26, LTB4R (Homo sapiens, UniProt Q15722)
T26 construct: purchased DiscoveRx (Eurofins) gpcrMAX PathHunter β-arrestin panel
Method in brief: as §1

[32] = target: CALCRL-RAMP2 (Homo sapiens, UniProt O60895+Q16602)
Method in brief: as §1

[33] = target: T27, EDG4 (Homo sapiens, UniProt Q9HBW0)
T27 construct: purchased DiscoveRx (Eurofins) gpcrMAX PathHunter β-arrestin panel
Method in brief: as §1

[34] = target: T28, GALR1 (Homo sapiens, UniProt P47211)
T28 construct: purchased DiscoveRx (Eurofins) gpcrMAX PathHunter β-arrestin panel
Method in brief: as §1

[35] = target: T29, NMU1R (Homo sapiens, UniProt Q9HB89)
T29 construct: purchased DiscoveRx (Eurofins) gpcrMAX PathHunter β-arrestin panel
Method in brief: as §1

[36] = target: T30, DRD2S (Homo sapiens, UniProt P14416)
T30 construct: purchased DiscoveRx (Eurofins) gpcrMAX PathHunter β-arrestin panel
Method in brief: as §1

[37] = target: T31, CCR1 (Homo sapiens, UniProt P32246)
T31 construct: purchased DiscoveRx (Eurofins) gpcrMAX PathHunter β-arrestin panel
Method in brief: as §1

[38] = target: CALCR-RAMP3 (Homo sapiens, UniProt O60896+P30988)
Method in brief: as §1

[39] = target: T32, CXCR7 (Homo sapiens, UniProt P25106)
T32 construct: purchased DiscoveRx (Eurofins) gpcrMAX PathHunter β-arrestin panel
Method in brief: as §1

[40] = target: T33, RXFP3 (Homo sapiens, UniProt Q9NSD7)
T33 construct: purchased DiscoveRx (Eurofins) gpcrMAX PathHunter β-arrestin panel
Method in brief: as §1

[41] = target: T34, PPYR1 (Homo sapiens, UniProt P50391)
T34 construct: purchased DiscoveRx (Eurofins) gpcrMAX PathHunter β-arrestin panel
Method in brief: as §1

[42] = target: T35, HRH3 (Homo sapiens, UniProt Q9Y5N1)
T35 construct: purchased DiscoveRx (Eurofins) gpcrMAX PathHunter β-arrestin panel
Method in brief: as §1

[43] = target: T36, PTHR1 (Homo sapiens, UniProt Q03431)
T36 construct: purchased DiscoveRx (Eurofins) gpcrMAX PathHunter β-arrestin panel
Method in brief: as §1

T22 sequence (Q8NFJ6 whole entry): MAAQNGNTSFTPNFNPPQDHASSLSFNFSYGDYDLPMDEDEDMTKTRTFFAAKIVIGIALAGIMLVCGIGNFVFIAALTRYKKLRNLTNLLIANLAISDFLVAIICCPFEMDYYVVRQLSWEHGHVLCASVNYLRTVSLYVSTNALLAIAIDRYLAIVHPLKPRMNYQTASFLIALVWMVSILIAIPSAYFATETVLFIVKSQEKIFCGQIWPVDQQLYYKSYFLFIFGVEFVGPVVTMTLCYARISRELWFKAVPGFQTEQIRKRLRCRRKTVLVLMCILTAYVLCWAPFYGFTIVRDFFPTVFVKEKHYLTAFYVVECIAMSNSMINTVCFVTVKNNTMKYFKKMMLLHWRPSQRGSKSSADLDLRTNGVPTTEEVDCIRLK
C5aR1, sequence (P21730 whole entry): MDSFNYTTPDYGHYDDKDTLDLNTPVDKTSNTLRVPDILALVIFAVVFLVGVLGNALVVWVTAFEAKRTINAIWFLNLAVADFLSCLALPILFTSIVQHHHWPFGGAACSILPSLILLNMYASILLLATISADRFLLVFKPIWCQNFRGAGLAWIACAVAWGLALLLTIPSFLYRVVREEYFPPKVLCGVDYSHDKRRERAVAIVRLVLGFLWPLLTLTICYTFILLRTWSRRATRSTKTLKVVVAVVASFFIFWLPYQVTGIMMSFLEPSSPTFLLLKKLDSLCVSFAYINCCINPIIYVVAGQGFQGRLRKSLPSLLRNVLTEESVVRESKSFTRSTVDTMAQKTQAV
T31 sequence (P32246 whole entry): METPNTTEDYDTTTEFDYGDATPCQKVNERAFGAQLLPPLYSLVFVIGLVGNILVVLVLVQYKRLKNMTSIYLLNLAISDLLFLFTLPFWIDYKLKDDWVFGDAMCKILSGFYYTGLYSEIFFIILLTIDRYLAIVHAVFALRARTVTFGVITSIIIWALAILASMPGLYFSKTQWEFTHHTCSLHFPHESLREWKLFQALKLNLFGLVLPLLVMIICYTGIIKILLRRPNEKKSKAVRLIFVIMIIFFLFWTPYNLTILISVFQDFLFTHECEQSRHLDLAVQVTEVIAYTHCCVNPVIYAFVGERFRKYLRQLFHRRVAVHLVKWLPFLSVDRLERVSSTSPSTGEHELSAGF
T3 sequence (O43614 whole entry): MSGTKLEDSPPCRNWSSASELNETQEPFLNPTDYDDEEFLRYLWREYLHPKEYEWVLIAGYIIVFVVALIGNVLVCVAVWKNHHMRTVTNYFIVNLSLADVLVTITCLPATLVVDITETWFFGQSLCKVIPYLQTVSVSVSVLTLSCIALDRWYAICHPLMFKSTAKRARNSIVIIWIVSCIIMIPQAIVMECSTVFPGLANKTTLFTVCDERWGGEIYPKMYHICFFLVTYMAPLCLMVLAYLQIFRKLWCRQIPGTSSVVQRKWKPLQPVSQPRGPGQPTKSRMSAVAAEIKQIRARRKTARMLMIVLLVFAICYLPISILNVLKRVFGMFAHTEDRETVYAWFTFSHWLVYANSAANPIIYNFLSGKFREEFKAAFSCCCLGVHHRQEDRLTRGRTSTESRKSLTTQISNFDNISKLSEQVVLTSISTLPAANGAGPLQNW
T19 sequence (P14416 whole entry): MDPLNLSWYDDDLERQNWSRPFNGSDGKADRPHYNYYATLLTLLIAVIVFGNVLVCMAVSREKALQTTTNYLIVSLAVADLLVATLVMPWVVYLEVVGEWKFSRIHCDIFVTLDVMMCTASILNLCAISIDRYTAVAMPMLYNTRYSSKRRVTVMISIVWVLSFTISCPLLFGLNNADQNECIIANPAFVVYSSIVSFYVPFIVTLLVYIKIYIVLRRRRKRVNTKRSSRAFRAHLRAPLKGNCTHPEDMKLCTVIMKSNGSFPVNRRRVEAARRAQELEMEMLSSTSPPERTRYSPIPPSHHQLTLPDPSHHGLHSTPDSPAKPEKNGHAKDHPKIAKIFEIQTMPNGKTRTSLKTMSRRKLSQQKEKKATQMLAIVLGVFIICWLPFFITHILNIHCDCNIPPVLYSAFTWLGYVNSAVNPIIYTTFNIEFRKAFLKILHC
T13 sequence (Q96LB2 whole entry): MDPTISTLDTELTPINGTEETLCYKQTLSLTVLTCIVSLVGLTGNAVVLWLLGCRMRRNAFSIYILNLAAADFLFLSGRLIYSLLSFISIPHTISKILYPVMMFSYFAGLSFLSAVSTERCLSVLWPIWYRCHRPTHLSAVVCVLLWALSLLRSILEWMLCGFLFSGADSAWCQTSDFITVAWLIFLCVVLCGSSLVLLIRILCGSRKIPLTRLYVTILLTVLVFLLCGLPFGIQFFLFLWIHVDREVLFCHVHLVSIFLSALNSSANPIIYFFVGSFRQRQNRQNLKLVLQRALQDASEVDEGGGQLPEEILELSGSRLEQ
T1 sequence (Q9H1C0 whole entry): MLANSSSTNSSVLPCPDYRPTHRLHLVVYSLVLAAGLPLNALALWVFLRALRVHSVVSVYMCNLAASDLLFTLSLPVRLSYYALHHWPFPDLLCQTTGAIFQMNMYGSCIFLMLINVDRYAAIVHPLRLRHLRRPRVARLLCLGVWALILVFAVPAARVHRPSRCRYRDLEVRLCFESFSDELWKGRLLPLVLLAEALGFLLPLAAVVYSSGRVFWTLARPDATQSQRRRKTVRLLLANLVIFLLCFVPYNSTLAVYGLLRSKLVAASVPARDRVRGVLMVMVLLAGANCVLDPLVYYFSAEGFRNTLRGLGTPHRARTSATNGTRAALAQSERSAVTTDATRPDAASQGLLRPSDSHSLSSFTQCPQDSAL
T10 sequence (P35462 whole entry): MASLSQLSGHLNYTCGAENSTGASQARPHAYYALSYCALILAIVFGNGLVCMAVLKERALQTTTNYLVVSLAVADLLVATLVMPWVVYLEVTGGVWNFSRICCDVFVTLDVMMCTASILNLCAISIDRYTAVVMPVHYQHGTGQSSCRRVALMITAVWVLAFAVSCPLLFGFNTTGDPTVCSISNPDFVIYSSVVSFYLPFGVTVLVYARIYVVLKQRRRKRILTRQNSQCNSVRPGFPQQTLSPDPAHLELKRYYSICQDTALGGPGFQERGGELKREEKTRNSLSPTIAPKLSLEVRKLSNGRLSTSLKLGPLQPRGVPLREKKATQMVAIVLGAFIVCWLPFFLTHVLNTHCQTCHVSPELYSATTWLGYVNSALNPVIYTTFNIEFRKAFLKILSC
T18 sequence (P32745 whole entry): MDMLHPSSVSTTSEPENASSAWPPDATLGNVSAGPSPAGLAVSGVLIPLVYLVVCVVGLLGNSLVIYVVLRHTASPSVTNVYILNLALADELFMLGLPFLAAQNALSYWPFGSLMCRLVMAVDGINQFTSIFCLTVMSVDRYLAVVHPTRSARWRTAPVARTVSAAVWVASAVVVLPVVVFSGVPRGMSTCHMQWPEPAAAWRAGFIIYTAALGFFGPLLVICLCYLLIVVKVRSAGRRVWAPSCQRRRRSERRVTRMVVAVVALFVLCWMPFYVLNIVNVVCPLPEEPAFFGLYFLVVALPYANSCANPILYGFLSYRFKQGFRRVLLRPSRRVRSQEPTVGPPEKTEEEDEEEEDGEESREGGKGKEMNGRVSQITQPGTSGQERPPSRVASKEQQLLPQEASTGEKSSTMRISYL
C3AR1, sequence (Q16581 whole entry): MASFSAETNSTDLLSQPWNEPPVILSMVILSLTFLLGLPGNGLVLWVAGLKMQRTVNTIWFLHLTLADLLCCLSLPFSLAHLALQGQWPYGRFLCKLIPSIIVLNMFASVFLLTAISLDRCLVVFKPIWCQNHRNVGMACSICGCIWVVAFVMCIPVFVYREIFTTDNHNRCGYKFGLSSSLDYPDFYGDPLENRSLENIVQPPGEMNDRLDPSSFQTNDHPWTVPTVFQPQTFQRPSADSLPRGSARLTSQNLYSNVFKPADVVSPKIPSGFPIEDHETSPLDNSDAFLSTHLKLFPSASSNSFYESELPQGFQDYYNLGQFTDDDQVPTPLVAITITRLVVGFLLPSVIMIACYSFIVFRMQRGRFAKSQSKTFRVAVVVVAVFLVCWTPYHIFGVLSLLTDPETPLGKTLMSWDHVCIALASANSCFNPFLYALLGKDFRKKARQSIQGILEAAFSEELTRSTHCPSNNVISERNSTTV
T30 sequence (P14416 1-414 isoform P14416-2): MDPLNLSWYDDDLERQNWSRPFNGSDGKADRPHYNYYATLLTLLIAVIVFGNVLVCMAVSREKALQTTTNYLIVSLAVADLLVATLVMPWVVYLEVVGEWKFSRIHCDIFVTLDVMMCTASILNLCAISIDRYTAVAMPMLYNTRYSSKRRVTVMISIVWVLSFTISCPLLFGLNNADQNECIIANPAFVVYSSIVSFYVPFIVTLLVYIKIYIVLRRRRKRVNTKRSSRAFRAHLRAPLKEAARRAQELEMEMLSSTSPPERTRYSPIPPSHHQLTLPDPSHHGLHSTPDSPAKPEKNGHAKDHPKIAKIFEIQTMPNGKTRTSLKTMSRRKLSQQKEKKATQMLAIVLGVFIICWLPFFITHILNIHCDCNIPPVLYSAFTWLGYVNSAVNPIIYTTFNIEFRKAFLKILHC
T26 sequence (Q15722 whole entry): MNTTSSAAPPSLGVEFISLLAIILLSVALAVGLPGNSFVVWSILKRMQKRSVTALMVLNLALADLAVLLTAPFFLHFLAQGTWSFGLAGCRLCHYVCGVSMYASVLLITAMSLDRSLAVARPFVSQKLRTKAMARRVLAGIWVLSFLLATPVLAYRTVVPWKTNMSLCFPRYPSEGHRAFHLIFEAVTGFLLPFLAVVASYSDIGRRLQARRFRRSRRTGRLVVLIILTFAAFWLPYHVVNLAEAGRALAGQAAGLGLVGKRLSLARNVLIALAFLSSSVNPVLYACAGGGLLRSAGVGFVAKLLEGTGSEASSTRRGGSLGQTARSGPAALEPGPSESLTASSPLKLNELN

SMILES: CC(=O)N[C@@H](CCCC#C/C=C/Cl)CCCCCCC(Cl)Cl [Compound 4, taveuniamide F]
- inhibition at 20 µM [1]: 56.5%
- inhibition at 20 µM [2]: 39.7%
- inhibition at 20 µM [3]: 14.1%
- inhibition at 20 µM [4]: 10.3%
- inhibition at 20 µM [5]: 11.6%
- inhibition at 20 µM [6]: 18.7%
- inhibition at 20 µM [7]: 40.5%
- inhibition at 20 µM [8]: 33.1%
- inhibition at 20 µM [9]: 16.5%
- inhibition at 20 µM [10]: -6.7%
- inhibition at 20 µM [11]: 5.4%
- inhibition at 20 µM [12]: 26.2%
- inhibition at 20 µM [13]: 9.6%
- inhibition at 20 µM [14]: 57.5%
- inhibition at 20 µM [15]: 18%
- inhibition at 20 µM [16]: 0.5%
- inhibition at 20 µM [17]: -21.3%
- inhibition at 20 µM [18]: 13.7%
- inhibition at 20 µM [19]: 22.9%
- inhibition at 20 µM [20]: 10.9%
- inhibition at 20 µM [21]: 38.2%
- inhibition at 20 µM [22]: 41.3%
- inhibition at 20 µM [23]: 3.8%
- inhibition at 20 µM [24]: -12.1%
- inhibition at 20 µM [25]: 19.6%
- inhibition at 20 µM [26]: 1.4%
- inhibition at 20 µM [27]: 30.5%
- inhibition at 20 µM [28]: 20.2%
- inhibition at 20 µM [29]: 30.8%
- inhibition at 20 µM [30]: 3%
- inhibition at 20 µM [31]: 4.6%
- inhibition at 20 µM [32]: 13.6%
- inhibition at 20 µM [33]: 56.3%
- inhibition at 20 µM [34]: 5.7%
- inhibition at 20 µM [35]: 30.1%
- inhibition at 20 µM [36]: -8.1%
- inhibition at 20 µM [37]: 65.7%
- inhibition at 20 µM [38]: 3.1%
- inhibition at 20 µM [39]: 3.6%
- inhibition at 20 µM [40]: 32.8%
- inhibition at 20 µM [41]: 50.7%
- inhibition at 20 µM [42]: 5%
- inhibition at 20 µM [43]: 17.5%
